This is an account of results in ChEMBL document CHEMBL5357008, “Novel Pyrazolopyridine Inhibitors of Monoacylglycerol Lipase for the Treatment of Neurodegenerative Diseases and Neuroinflammation” (ACS Med Chem Lett, 2024).

As usually defined, the IC50 is the concentration at which inhibition is half-maximal.

The target of this experiment is T1, Monoglyceride lipase (Homo sapiens, UniProt Q99685).
T1 sequence (Q99685 whole entry): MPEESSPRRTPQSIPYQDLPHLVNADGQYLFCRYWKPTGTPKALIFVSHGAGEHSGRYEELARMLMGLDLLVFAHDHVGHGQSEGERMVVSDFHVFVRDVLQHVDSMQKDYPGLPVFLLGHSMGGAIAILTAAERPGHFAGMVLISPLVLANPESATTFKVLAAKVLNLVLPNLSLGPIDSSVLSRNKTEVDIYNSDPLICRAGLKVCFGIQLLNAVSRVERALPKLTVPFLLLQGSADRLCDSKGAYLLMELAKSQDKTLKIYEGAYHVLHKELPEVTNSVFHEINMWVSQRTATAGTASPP
Nature of the experiment: Inhibition of MAGL (unknown origin) using 2-arachidonoylglycerol as substrate preincubated with compound for 15 mins followed by substrate addition and measured after 30 mins by mass spectrometer analysis.
For the compound `COc1cccc(C(=O)N2CCc3c(nn(C)c3-c3cc(Cl)cc(CS(N)(=O)=O)c3)[C@@H]2C)c1Cl`, the IC50 was found to be 27 nM.

Consider `CC1c2nn(C)c(-c3cc(F)cc(F)c3)c2CCN1C(=O)c1cc(F)cc(OCC2CNC(=O)C2)c1Cl` (stereo not drawn), for which the IC50 came to 5 nM.

Turning to `C[C@H]1c2nn(C)c(-c3cc(F)cc(F)c3)c2CCN1C(=O)c1cc(F)cc(OCC2CNC(=O)O2)c1Cl` (stereo partly drawn), the IC50 was 2 nM.
